Assay [1] deals with Human umbilical vein endothelial cells (HUVECs), tumour type activated endothelial cells (Tum). The experiment in a line: Proliferation Assay - Activated Endothelium (MTT). Format: cell-based. The conditions noted are these: for Potency against activated (tumour) versus quiescent (normal) endothelial cells: activated compared with quiescent endothelial cells; for pIC50: Homo sapiens, HUVEC, tumour type activated endothelial cells, 48 hrs. On the procedure:
Proliferation Assay—Activated Endothelium:
(§1) Human umbilical vein endothelial cells (CC-2519, Clonetics) were plated at 2500 cells/well in EGM2 (CC-3162, Clonetics) in a 96 well plate in triplicate. Cells were cultured overnight at 37° C. 5% CO2. Medium was subsequently replaced with fresh medium including the compound or negative control. Cells were cultured for a period of 48 hrs. An MTT assay was performed to measure changes in cell numbers. Briefly, 20 μl of MTT reagent was added to cells containing 100 μl of EGM2 and incubated at 37° C. for 2 hours. Absorbance was measured at 492 nm.

Another assay relates to MCF-7. The experiment in a line: Growth inhibition of cancer cell line, Sulforhodamine B (SRB) or Systmex cell counting (CC) assay. Format: cell-based. The conditions noted are these: Homo sapiens, MCF7, concentration required to inhibit net cell growth by 50%.
Assay [2] concerns Human umbilical vein endothelial cells (HUVECs), normal quiescent type endothelial cells (Norm). The experiment in a line: Proliferation Assay - Quiescent Endothelium (MTT). It counts as cell-based. The conditions noted are these: HUVEC, 48 hrs. On the procedure:
Proliferation Assay—Quiescent Endothelium:
as §1, with “15000” for “2500”, “EBM2 (CC-3156, Clonetics)+0.5% FBS (CC-4101A, Clonetics)+GA-1000 (CC-4381A,” for “EGM2 (CC-3162,”, “EBM2+0.5% FBS” for “EGM2”

A further assay concerns tubulin. Description: Tubulin polymerisation inhibition. It counts as biochemical.
Assay [3] deals with MDA-MB-231 solid orthotopic tumours. Description: Tumour Growth Inhibition, MDA-MB-231 orthotopic tumours. Format: in vivo, Balb/c nu/nu mice. The conditions noted are these: 40 mg/kg i.v., two cycles; monitored up to 72 days; vs vehicle, p<0.001 from day 4 to Day 70. On the procedure:
Tumour Growth Inhibition:
Balb/c nu/nu mice bearing MDA-MB-231 solid orthotopic tumours were treated with compound Example 2 at 40 mg/kg. Animals were i.v. dosed with a total of two cycles of Example 2 treatment. Each cycle was dosing on […] followed by a three week no-dosing period. Tumour growth represented as a ratio to initial tumour volume is shown over a total of 72-days.
Tumour growth as well as animal health were monitored for up to 72 days post-day 1 of treatment. […] Significant differences in tumour growth between Example 2 treated (n=64) and vehicle treated (n=20) animals were observed as early as day 4 (p<0.001; unpaired t-test; Prism® analysis) through to Day 70.

pIC50: −log10 of the molar value.

From patent publication US20180289739A1, “Combination Therapy for Treating Proliferative Diseases” (BIONOMICS LIMITED, priority 2009, published 2018) come the findings set out here.

Regarding `COc1ccc(/C=C\c2cc(OC)c(OC)c(OC)c2)cc1O` [Combretastatin A4], the “Potency against activated (tumour) versus quiescent (normal) endothelial cells” value in assay [1] is “equally potent against quiescent and activated endothelial cells”.

In general, pIC50 refers to the IC50 on a negative log10 scale, so that one unit is a factor of ten. Lower therefore signals a high IC50. As to `COc1ccc2c(C(=O)c3cc(OC)c(OC)c(OC)c3)coc2c1` [Comparator C], the negative logarithm of the IC50 (pIC50) in the assay with MCF-7 was 7.26; in assay [1], 7.00 to 8.00; in assay [2], 7.00 to 8.00.

Regarding `COc1ccc2c(C(=O)c3cc(OC)c(OC)c(OC)c3)c(Br)oc2c1` [Comparator D], the results for the pIC50 (in the assay with MCF-7; in assay [1]; in assay [2]) were 6.30, 6.00 to 7.00 and 6.00 to 7.00, respectively.

In the case of `COc1cc(C(=O)c2c(C)oc3c(O)c(OC)ccc23)cc(OC)c1OC` [Example 1, 2-Methyl-7-hydroxy-3-(3,4,5-trimethoxybenzoyl)-6-methoxybenzofuran], the pIC50 was 8.70 in the assay on MCF-7, 9.00 to 10.00 in assay [1] and 7.00 to 8.00 in assay [2]. For the same compound, the Tubulin polymerisation inhibition result with tubulin is given as “potent tubulin polymerisation inhibitor”. In addition, the “Potency against activated (tumour) versus quiescent (normal) endothelial cells” value in assay [1] was “high potency towards tumour endothelial cells (activated) over normal endothelial cells (quiescent)”.

Consider `COc1cc(C(=O)c2c(C)oc3c(OP(=O)([O-])[O-])c(OC)ccc23)cc(OC)c1OC.[Na+].[Na+]` [Example 2, Disodium 6-methoxy-2-methyl-3-(3,4,5-trimethoxybenzoyl)benzofuran-7-yl Phosphate], for which, in assay [3], the “Tumour growth (ratio to initial tumour volume)” value is “clearly show tumour growth inhibition”.
